According to patent US20260232633A1, “Compositions and Uses Thereof” (Purposeful IKE, priority 2020, published 2026):
Several values for one entry are separate records, joined by “and”; a condition that tells them apart may be missing. Equal values may be shown once.

Columns and labels:
Fmr1 KO mice [1] = assay: Open field test (hyperactivity); type: in vivo
Method: (§1) Fmr1 KO mice backcrossed to the FVB strain and WT littermates were used during experiments. TransnetXY Automated Genotyping (www.transnetyx.com/). TRANSNETYX, INC., 8110 Cordova Rd. Suite 119, Cordova, TN 38016, USA was used for genotyping. The animals were pretreated for 14 days. The active ingredients of Sumatriptan and Ergoloid were in a water carrier, whereas oxitriptan was in a methanol carrier.
(§2) The mice were housed in plastic cages (35×30×12 cm), 5 in each. The room temperature (21±2° C.),relative humidity (55±5%), a 12-h light-dark cycle (lights on 7 a.m.-7 p.m.) and air exchange (16 times per h) were automatically controlled. The animals had free access to commercial food pellets and water. Testing was conducted during the light phase. Ten mice per treatment group were used for the AGS experiments. Experiments were conducted in line with the requirements of the UK Animals (Scientific Procedures) Act, 1986.
All experiments were conducted with the experimenter blind to genotype and drug treatment. Separate investigators prepared and coded dosing solutions, allocated the mice to the study treatment groups, dosed the animals, and collected the Audiogenic Seizure data. […]
For hyperactivity, the open field test (OFT) is a common measure of exploratory behavior and general activity in both mice and rats, where both the quality and quantity of the activity can be measured. […]

Fmr1 KO mice [2] = assay: Stereotypy: self-grooming; type: in vivo; settings: for Stereotypy: Mean 2 (mean of treated KO group): Table 8, KO-V mean 45.40, WT-V 31.60, doses as E19
Method: as §1, §2
(§3) All experiments were conducted with the experimenter blind to genotype and drug treatment. Separate investigators prepared and coded dosing solutions, allocated the mice to the study treatment groups, dosed the animals, and collected the Audiogenic Seizure data.
(§4) Behavior testing was conducted at 2 weeks. The behavioral tests were as follows: 1. Hyperactivity: Open field; 2. Stereotypy: Self-grooming; 3. Sociability: Three chamber partition test; 4. Memory and Learning: Novel Object Recognition; 5. Anxiety: hyponeophagia; and 6. Test of daily living: marble burying
For stereotypy, self-grooming was assessed. Self-grooming in animals is an innate behaviour that is involved in hygiene maintenance and other physiologically important processes, including thermoregulation, social communication and de-arousal. It is one of the most frequently observed behaviours in awake rodents and has a patterned, sequential organization with characteristic cephalocaudal progression (Kalueff 2016).
(§5) The treatment of the mice with OX (Oxitriptan), SU (Sumatriptan), ER (Ergoloid mesylates, also referred to as ergoloid herein) were according to the matrix shown below in Table 1. […]

Fmr1 KO mice [3] = assay: Test of daily living (marble burying / nesting); type: in vivo; design: scale not given here; settings: for Tests of daily living: individual animal values
Method: as §1, §2, §3, §4
For test of daily living, nesting was assessed as nest building is an innate behavior in rodents, even when raised in laboratory settings. Synthetic and/or natural materials (such as twine, tissue, cotton, paper, and hay) are provided as a gauge of their overall well-being and as an ancillary assessment to predict the possible decline in cognition. Typically, changes in nesting behaviors, such as failure to create a nest, indicate a change in health or welfare. In addition, nesting behavior is sensitive to many environmental and physiological challenges, as well as many genetic mutations underlying pathological disease states (Gaskill 2013).
(§6) The treatment of the mice with OX (Oxitriptan), SU (Sumatriptan), ER (Ergoloid mesylates, also referred to as ergoloid herein) were according to the matrix shown below in Table 1.
(§7) The experimental procedures described above for Example 1 were used in the following tests, as well as the addition of two further behaviour tests as described below. An SSRI (selective serotonin re-uptake inhibitor) was co-dosed with the ergoloid mesylates and oxitriptan to assess the effect of the ergoloid mesylates and oxitriptan treatment on a subject already receiving SSRI treatment.

Fmr1 KO mice [4] = assay: Sociability: three chamber partition test; type: in vivo; design: unit not given here; settings: for Sociability: Mean Diff., F_KO-V vs. F_ treated KO (Dunnett) / Sociability: Mean Diff., F_KO-V vs. N_ treated KO (Dunnett): against F_KO-V; for Sociability: Mean Diff., F_KO-V vs. F_ treated KO (Dunnett): Sumatriptan 20, Oxitriptan 40, Ergoloid 4, Ergoloid 2 + Oxitriptan 40 mg/kg; for Sociability, F_KO / Sociability, N_KO: individual animal values
Method: as §1, §2, §3, §4
For sociability a three chamber partition test was utilized. The three-chamber paradigm test known as Crawley's sociability and preference for social novelty protocol has previously been successfully employed to study social affiliation and social memory in several inbred and mutant mouse lines. The main principle of the test was based on the free choice by a subject mouse to spend time in any of three box's compartments during two experimental sessions, including indirect contact with one or two mice with which it was unfamiliar (Kaidanovich-Beilin 2011).
as §5

[5] = Jacobsen J P R 2016; cited from earlier work
Fmr1 KO mice [6] = assay: Anxiety: hyponeophagia test; type: in vivo
Method: as §1, §2, §3
Behavior testing was conducted at 2 weeks. […]
For anxiety a hyponeophagia test was conducted. […] The amounts ingested then gradually increase until the animal has determined whether the substance is safe and nutritious. […]

FMR1 mice = assay: Behavioral experiments overall (FXS phenotypes); type: in vivo
Method: as §1, §4, §6
as §7, with “treatment. […]” for “treatment.”

Fmr1 KO mice [7] = assay: Memory and learning: Novel Object Recognition (NOR); type: in vivo; design: unit not given here; settings: for NOR: Mean Diff., F_KO-V vs. F_ treated KO (Dunnett) / NOR: Mean 2 (mean of F_ treated KO group): F_ values; for NOR: Mean Diff., F_KO-V vs. F_ treated KO (Dunnett) / NOR: Mean Diff., F_KO-V vs. N_ treated KO (Dunnett): against F_KO-V; for NOR: Mean Diff., F_KO-V vs. F_ treated KO (Dunnett): Sumatriptan 20, Oxitriptan 40, Ergoloid 4, Ergoloid 2 + Oxitriptan 40 mg/kg; for Novel Object Recognition, F_KO / Novel Object Recognition, N_KO: individual animal values
Method: as §1, §2, §3, §4
For memory and learning, a novel object recognition (NOR) task was used to evaluate the rodents' ability to recognize a novel object in the environment. […] The task procedure consists of three phases: habituation, familiarization, and test phase (Antunes 2012).
as §5

[8] = Table 4, WT-V mean 4.800, KO-V 1.200, doses as E7
[9] = Table 10, KO-V mean 1.200, doses as E25
[10] = Table 12, N_ values, F_KO-V mean 81.60, doses as E34
[11] = Table 11, F_KO-V mean 6.600, doses as E28
[12] = against KO-V, Sumatriptan 20, Oxitriptan 40, Ergoloid 4, Ergoloid 2 + Oxitriptan 40 mg/kg
[13] = against WT-V, Sumatriptan 20, Oxitriptan 40, Ergoloid 4, Ergoloid 2 + Sumatriptan 10, Ergoloid 2 + Oxitriptan 40 mg/kg
[14] = N_ values, against N_WT-V, Sumatriptan 20, Oxitriptan 40, Ergoloid 4, Ergoloid 2 + Sumatriptan 10, Ergoloid 2 + Oxitriptan 40 mg/kg

N[C@@H](Cc1c[nH]c2ccc(O)cc12)C(=O)O [Oxitriptan, 2-amino-3-(5-hydroxy-1H-indol-3-yl)propanoic acid]
Open Field: Mean Diff., WT-V vs. treated KO (Dunnett) (Fmr1 KO mice [1]; against WT-V, 14 days QD, Sumatriptan 20, 5-HTP 80, EM 4, Ergoloid 2 + Sumatriptan 10, Ergoloid 2 + Oxitriptan 40 mg/kg): −512.4
Stereotypy: Mean 2 (mean of treated KO group) (Fmr1 KO mice [2]): 38.30
Tests of daily living (Fmr1 KO mice [3]; KO-Oxitriptan (40 mg/kg)): 5 (9×) and 4
Test of daily living: Mean 2 (mean of treated KO group) (Fmr1 KO mice [3]; [8]): 4.900
Test of daily living: Mean 2 (mean of treated KO group) (Fmr1 KO mice [3]; [9]): 4.900
Sociability: Mean Diff., F_KO-V vs. F_ treated KO (Dunnett) (Fmr1 KO mice [4]; F_ values): 29.51
Sociability, F_KO (Fmr1 KO mice [4]; F_KO-Oxitriptan (40 mg/kg)): 51 (2×) and 54 and 52 (2×) and 50 (2×) and 53 (2×) and 55
Sociability: Mean Diff., F_KO-V vs. N_ treated KO (Dunnett) (Fmr1 KO mice [4]; N_ values, doses as E34): −17.20
Sociability, N_KO (Fmr1 KO mice [4]; N_KO-Oxitriptan (40 mg/kg)): 98 (2×) and 97 (2×) and 100 (2×) and 99 (2×) and 96
Sociability: Mean 2 (mean of N_ treated KO group) (Fmr1 KO mice [4]; [10]): 98.80
half life [5]: 2 h
Hyponeophagia (Fmr1 KO mice [6]; KO-Oxitriptan (40 mg/kg), individual animal values): 150 and 140 (2×)
Effect on FXS phenotypes in the behavioral experiments (Example 1) (FMR1 mice): ameliorates the FXS phenotypes
NOR: Mean Diff., F_KO-V vs. F_ treated KO (Dunnett) (Fmr1 KO mice [7]): −0.03636
Novel Object Recognition, F_KO (Fmr1 KO mice [7]; F_KO-Oxitriptan (40 mg/kg)): 6 (4×) and 5 (3×) and 9 (2×) and 8 (2×)
NOR: Mean Diff., F_KO-V vs. N_ treated KO (Dunnett) (Fmr1 KO mice [7]; N_ values, doses as E28): −4.218
Novel Object Recognition, N_KO (Fmr1 KO mice [7]; N_KO-Oxitriptan (40 mg/kg)): 10 (4×) and 12 and 14 and 8 (2×) and 15 and 13 and 9
NOR: Mean 2 (mean of F_ treated KO group) (Fmr1 KO mice [7]; [11]): 6.636

CNS(=O)(=O)Cc1ccc2[nH]cc(CCN(C)C)c2c1 [Sumatriptan]
Open Field: Mean Diff., KO-V vs. treated KO (Dunnett) (Fmr1 KO mice [1]; against KO-V, Sumatriptan 20, Oxitriptan 80, Ergoloid 4, Ergoloid 2 + Oxitriptan 40 mg/kg): 846.6
Stereotypy: Mean 2 (mean of treated KO group) (Fmr1 KO mice [2]): 30.90
Stereotypy: Mean Diff., KO-V vs. treated KO (Dunnett) (Fmr1 KO mice [2]; [12]): 14.50
Tests of daily living (Fmr1 KO mice [3]; KO-Sumatriptan (20 mg/kg)): 5 (7×) and 4 (3×)
Test of daily living: Mean 2 (mean of treated KO group) (Fmr1 KO mice [3]; [8]): 4.700
Test of daily living: Mean 2 (mean of treated KO group) (Fmr1 KO mice [3]; [9]): 4.700
Test of daily living: Mean Diff., KO-V vs. treated KO (Dunnett) (Fmr1 KO mice [3]; [12]): −3.500
Test of daily living: Mean Diff., WT-V vs. treated KO (Dunnett) (Fmr1 KO mice [3]; [13]): 0.1000
Sociability: Mean Diff., F_KO-V vs. F_ treated KO (Dunnett) (Fmr1 KO mice [4]; F_ values): 19.40
Sociability, F_KO (Fmr1 KO mice [4]; F_KO-Sumatriptan (20 mg/kg)): 61 (2×) and 64 and 65 (2×) and 60 (3×) and 63 (2×)
Sociability: Mean Diff., F_KO-V vs. N_ treated KO (Dunnett) (Fmr1 KO mice [4]; N_ values, doses as E34): −16.60
Sociability: Mean Diff., N_WT-V vs. N_ treated KO (Dunnett) (Fmr1 KO mice [4]; [14]): 0.9000
Sociability, N_KO (Fmr1 KO mice [4]; N_KO-Sumatriptan (20 mg/kg)): 99 and 97 (2×) and 103 and 98 and 90 and 102 and 100 and 95 and 101
Sociability: Mean 2 (mean of N_ treated KO group) (Fmr1 KO mice [4]; Table 6, N_WT-V mean 99.10, N_KO-V 83.90, doses as E13): 98.20
Sociability: Mean 2 (mean of F_ treated KO group) (Fmr1 KO mice [4]; Table 12, F_ values, F_KO-V mean 81.60, doses as E34): 62.20
Sociability: Mean 2 (mean of N_ treated KO group) (Fmr1 KO mice [4]; [10]): 98.20
Hyponeophagia: Mean Diff., WT-V vs. treated KO (Dunnett) (Fmr1 KO mice [6]; [13]): −9.200
NOR: Mean Diff., F_KO-V vs. F_ treated KO (Dunnett) (Fmr1 KO mice [7]): −0.2000
Novel Object Recognition, F_KO (Fmr1 KO mice [7]; F_KO-Sumatriptan (20 mg/kg)): 9 (2×) and 5 (2×) and 8 (2×) and 7 (2×) and 4 and 6
NOR: Mean Diff., F_KO-V vs. N_ treated KO (Dunnett) (Fmr1 KO mice [7]; N_ values, doses as E28): −0.7000
NOR: Mean Diff., N_WT-V vs. N_ treated KO (Dunnett) (Fmr1 KO mice [7]; [14]): 6.600
Novel Object Recognition, N_KO (Fmr1 KO mice [7]; N_KO-Sumatriptan (20 mg/kg)): 6 (3×) and 8 (2×) and 9 (3×) and 5 and 7
NOR: Mean 2 (mean of N_ treated KO group) (Fmr1 KO mice [7]; Table 5, N_WT-V mean 13.90, N_KO-V 6.700, doses as E10): 7.300
NOR: Mean 2 (mean of F_ treated KO group) (Fmr1 KO mice [7]; [11]): 6.800
NOR: Mean 2 (mean of N_ treated KO group) (Fmr1 KO mice [7]; Table 11, N_ values, F_KO-V mean 6.600, doses as E28): 7.300
